Experimental data as given in US20250360132A1, “METHODS OF ADMINISTERING MYOSIN INHIBITORS” (MYOKARDIA, INC., priority 2022, published 2025).

Columns and labels:
[1] = Pharmacokinetics in hepatic impairment; format: in vivo, human; conditions: mild (Child-Pugh A) or moderate (Child-Pugh B) hepatic impairment vs normal hepatic function
Description: No dosage adjustment is required in patients with mild (Child-Pugh A) to moderate (Child-Pugh B) hepatic impairment. […] However, no additional dose adjustment is required in patients with mild to moderate hepatic impairment with the recommended dose titration algorithm and monitoring plan. The effect of severe (Child-Pugh C) hepatic impairment is unknown.
The effect of severe (Child-Pugh C) hepatic impairment is unknown.

[2] = tested on: organic cation transporters (OCTs); assay: In vitro transporter inhibition; format: in vitro ADME
[3] = tested on: male or female rats; assay: Reproductive toxicity studies (mating and fertility); format: in vivo, rat
[4] = tested on: organic anion transporters (OATs); assay: In vitro transporter inhibition; format: in vitro ADME
[5] = tested on: pregnant rabbits; assay: Embryo-fetal development study in rabbits; format: in vivo, rabbit
Method: Visceral findings consisted of malformations of the great vessels (dilatation of pulmonary trunk and/or aortic arch). Skeletal malformations consisted of higher incidences of fused sternebrae at ≥1.2 mg/kg/day. Plasma exposure (AUC) at the no-effect dose for embryo-fetal development in rabbits is 0.4 times the exposure in humans at the MRHD.

[6] = tested on: dogs; assay: Animal toxicology, dogs; format: in vivo
Method: The safety of mavacamten has been evaluated in rats and dogs at multiple dose levels (0.06 to 10 mg/kg/day) orally. […] Plasma exposures (AUC) at the NOAEL in rats and dogs were 0.1 and 0.3 times, respectively, human exposure (AUC) at the MRHD.

CC(C)n1c(=O)cc(N[C@@H](C)c2ccccc2)[nH]c1=O [mavacamten, (S)-3-Isopropyl-6-((1-phenylethyl)amino)pyrimidine-2,4(1H,3H)-dione]
Increase in mavacamten exposure (AUC) [1]: up to 220% | Inhibition of OCTs [2]: does not inhibit | Effects on viability and fertility of offspring ([3]; dams dosed up to 1.5 mg/kg/day): no evidence of effects | Plasma exposure (AUC) at the highest dose tested ([3]; vs humans at the MRHD): the same as in humans at the MRHD | Inhibition of OATs [4]: does not inhibit | Embryo-fetal findings (risk summary) ([5]; both rabbits and rats, dose exposures similar to that at the MRHD): increases in visceral and skeletal malformations | Doses at which fetal malformations (visceral and skeletal) were increased ([5]; oral, period of organogenesis): ≥ 1.2 mg/kg/day | Plasma exposure (AUC) at the no-effect dose for embryo-fetal development vs humans at the MRHD ([5]; rabbits): 0.4 times | Plasma exposure (AUC) at the NOAEL vs human exposure at the MRHD [6]: 0.3 times
